From ChEMBL document CHEMBL1201862, “PubChem BioAssay data set” (2004)
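A five-concentration, 48-hour dose response in 96-well plates underlies each endpoint, interpolated linearly between surrounding concentrations. Abbreviation: GI50, concentration required for 50% inhibition of growth.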 Activity calls are given as the source filed them. No stated cut-off is given here; in the data, active = GI50 up to about 1.1 µM and inactive = higher.

Experiments:
Experiment in all cases: DTP human tumour cell line panel, 48 h
[1] = test system: MDA-MB-231
[2] = test system: NCI-H226
[3] = test system: SF-539
[4] = test system: KM12
[5] = test system: HCT-116
[6] = test system: HT-29
[7] = test system: ACHN
[8] = test system: TK-10
[9] = test system: UO-31
[10] = test system: MDA-MB-435
[11] = test system: EKVX
[12] = test system: SF-295
[13] = test system: PC-3
[14] = test system: SN12C
[15] = test system: OVCAR-8
[16] = test system: SNB-19
[17] = test system: HL-60
[18] = test system: A498
[19] = test system: SNB-75
[20] = test system: SK-MEL-28

Compound	GI50 [1]	GI50 [2]	GI50 [3]	GI50 [4]	GI50 [5]	GI50 [6]	GI50 [7]	GI50 [8]	GI50 [9]	GI50 [10]	GI50 [11]	GI50 [12]	GI50 [13]	GI50 [14]	GI50 [15]	GI50 [16]	GI50 [17]	GI50 [18]	GI50 [19]	GI50 [20]
Cc1ccc(O)c(C2=NNC(c3cccc(Cl)c3)C2)c1 (stereo not given)	61.5 µM (inactive)	57.1 µM (inactive)	66.5 µM (inactive)	20.6 µM (inactive)	34 µM (inactive)	54.8 µM (inactive)	30.1 µM (inactive)	58.3 µM (inactive)	28.1 µM (inactive)	19 µM (inactive)	37 µM (inactive)	66.4 µM (inactive)	32.3 µM (inactive)	37.2 µM (inactive)	56.2 µM (inactive)	14.4 µM (inactive)	41.7 µM (inactive)	–	–	–
CCOC(=O)c1c(NC(=S)Nc2ccc(C)cc2)sc2c1CCN(C)C2	> 100 µM (inactive)	> 100 µM (inactive)	> 100 µM (inactive)	81.7 µM (inactive)	> 100 µM (inactive)	> 100 µM (inactive)	> 100 µM (inactive)	> 100 µM (inactive)	> 100 µM (inactive)	–	> 100 µM (inactive)	> 100 µM (inactive)	> 100 µM (inactive)	> 100 µM (inactive)	> 100 µM (inactive)	> 100 µM (inactive)	94.6 µM (inactive)	59 µM (inactive)	< 0.01 µM (active)	–
Cc1cc(Br)c(N2C3=C(CC4=C2CCCC4=O)C(=O)CCC3)c(Br)c1	–	72.1 µM (inactive)	> 100 µM (inactive)	62.5 µM (inactive)	–	42.3 µM (inactive)	46.8 µM (inactive)	> 100 µM (inactive)	60.5 µM (inactive)	–	31 µM (inactive)	–	18.6 µM (inactive)	74.1 µM (inactive)	44.6 µM (inactive)	> 100 µM (inactive)	32.7 µM (inactive)	94.8 µM (inactive)	46.1 µM (inactive)	> 100 µM (inactive)
Clc1sc(Cl)c2c1[C@H](Cl)C[C@@H]2Cl	32.1 µM (inactive)	19.8 µM (inactive)	18.7 µM (inactive)	25.6 µM (inactive)	4.85 µM (inactive)	32.7 µM (inactive)	33.2 µM (inactive)	39.5 µM (inactive)	14.6 µM (inactive)	18.2 µM (inactive)	38.3 µM (inactive)	35.3 µM (inactive)	–	16.8 µM (inactive)	18.4 µM (inactive)	–	–	84.1 µM (inactive)	20 µM (inactive)	17.5 µM (inactive)
COc1cc([C@@H]2c3cc4c(cc3[C@@H](OC(=O)c3cccc(N)c3)C3COC(=O)[C@@H]32)OCO4)cc(OC)c1O (stereo not given in full)	–	1.15 µM (inactive)	0.621 µM (active)	17.8 µM (inactive)	5.71 µM (inactive)	3.13 µM (inactive)	1.96 µM (inactive)	59.3 µM (inactive)	5.26 µM (inactive)	–	27 µM (inactive)	0.32 µM (active)	–	3.42 µM (inactive)	8.05 µM (inactive)	34.8 µM (inactive)	2.7 µM (inactive)	0.649 µM (active)	5.36 µM (inactive)	0.91 µM (active)
O=C(CC(=O)C1=CNc2ccccc2S1)C(=O)Nc1ccc(Cl)cc1	–	49.4 µM (inactive)	> 50 µM (inactive)	> 50 µM (inactive)	> 50 µM (inactive)	> 50 µM (inactive)	> 50 µM (inactive)	> 50 µM (inactive)	> 50 µM (inactive)	–	> 50 µM (inactive)	> 50 µM (inactive)	–	> 50 µM (inactive)	> 50 µM (inactive)	> 50 µM (inactive)	> 34 µM (inactive)	> 50 µM (inactive)	> 50 µM (inactive)	> 50 µM (inactive)
Oc1cc(O)c2c(-c3c(O)c(-c4ccc(O)c(O)c4)[o+]c4cc(O)cc(O)c34)c(O)c(-c3ccc(O)c(O)c3)[o+]c2c1	–	20.1 µM (inactive)	25.6 µM (inactive)	35.1 µM (inactive)	48.8 µM (inactive)	37.6 µM (inactive)	21.7 µM (inactive)	61.5 µM (inactive)	40.4 µM (inactive)	–	28.7 µM (inactive)	41.8 µM (inactive)	–	39.9 µM (inactive)	36.6 µM (inactive)	36 µM (inactive)	> 10 µM (inactive)	38.5 µM (inactive)	24 µM (inactive)	91.2 µM (inactive)
O=S1(=O)NN=C(NCc2ccc(F)cc2)c2ccccc21	> 100 µM (inactive)	> 100 µM (inactive)	> 85.5 µM (inactive)	> 100 µM (inactive)	> 100 µM (inactive)	> 63.1 µM (inactive)	95.5 µM (inactive)	–	> 100 µM (inactive)	> 100 µM (inactive)	> 100 µM (inactive)	> 71.9 µM (inactive)	–	> 100 µM (inactive)	> 94.2 µM (inactive)	39.3 µM (inactive)	13.1 µM (inactive)	> 100 µM (inactive)	–	> 100 µM (inactive)
CCCCCCCCCCCCCCCCc1c(O)nc(NC#N)nc1C(=O)OC	–	> 25 µM (inactive)	> 25 µM (inactive)	> 25 µM (inactive)	> 25 µM (inactive)	> 25 µM (inactive)	> 25 µM (inactive)	> 25 µM (inactive)	> 25 µM (inactive)	–	> 25 µM (inactive)	> 25 µM (inactive)	–	> 25 µM (inactive)	> 25 µM (inactive)	> 25 µM (inactive)	> 25 µM (inactive)	> 25 µM (inactive)	> 25 µM (inactive)	> 25 µM (inactive)
COc1cccc(C2c3cc4c(cc3OC(N3CCCC3)C2C)OCO4)c1 (stereo not given)	–	–	8.69 µM (inactive)	6.01 µM (inactive)	4.76 µM (inactive)	4.58 µM (inactive)	8.79 µM (inactive)	18.6 µM (inactive)	12.1 µM (inactive)	2.7 µM (inactive)	21.3 µM (inactive)	3.04 µM (inactive)	11 µM (inactive)	20.9 µM (inactive)	18.7 µM (inactive)	11.4 µM (inactive)	–	–	4.99 µM (inactive)	8.79 µM (inactive)
CC(C)(/C=N\O)NO	> 10 µM (inactive)	> 10 µM (inactive)	–	> 10 µM (inactive)	> 10 µM (inactive)	> 10 µM (inactive)	> 10 µM (inactive)	> 10 µM (inactive)	> 10 µM (inactive)	> 10 µM (inactive)	> 10 µM (inactive)	> 10 µM (inactive)	> 10 µM (inactive)	> 10 µM (inactive)	> 10 µM (inactive)	> 10 µM (inactive)	> 10 µM (inactive)	–	–	–
O=C1CSC(c2c[nH]c3ccccc23)N1c1ccc(Cl)cc1 (stereo not given)	> 100 µM (inactive)	> 100 µM (inactive)	> 100 µM (inactive)	> 100 µM (inactive)	> 100 µM (inactive)	> 100 µM (inactive)	> 100 µM (inactive)	> 100 µM (inactive)	> 100 µM (inactive)	> 100 µM (inactive)	59.7 µM (inactive)	> 100 µM (inactive)	–	> 100 µM (inactive)	> 100 µM (inactive)	> 100 µM (inactive)	> 100 µM (inactive)	> 100 µM (inactive)	37.1 µM (inactive)	> 100 µM (inactive)
Cc1cn2c(=O)c3ccccc3nc2s1	–	> 100 µM (inactive)	88.7 µM (inactive)	> 100 µM (inactive)	> 100 µM (inactive)	> 100 µM (inactive)	> 100 µM (inactive)	> 100 µM (inactive)	> 100 µM (inactive)	–	> 100 µM (inactive)	> 100 µM (inactive)	–	> 100 µM (inactive)	> 100 µM (inactive)	> 100 µM (inactive)	> 100 µM (inactive)	> 100 µM (inactive)	92.3 µM (inactive)	> 100 µM (inactive)
CC(C)(C)C=C=C(C(C)(C)C)P(=O)(O)O	–	> 100 µM (inactive)	> 100 µM (inactive)	> 100 µM (inactive)	> 100 µM (inactive)	> 100 µM (inactive)	> 100 µM (inactive)	> 100 µM (inactive)	–	> 100 µM (inactive)	> 100 µM (inactive)	> 100 µM (inactive)	> 100 µM (inactive)	> 100 µM (inactive)	> 100 µM (inactive)	> 100 µM (inactive)	> 100 µM (inactive)	> 100 µM (inactive)	> 100 µM (inactive)	> 100 µM (inactive)
Cc1cn(C2CC(N)C(CN)O2)c(=O)[nH]c1=O (stereo not given)	–	40.6 µM (inactive)	> 100 µM (inactive)	> 100 µM (inactive)	> 100 µM (inactive)	> 100 µM (inactive)	> 100 µM (inactive)	> 100 µM (inactive)	> 100 µM (inactive)	> 100 µM (inactive)	> 100 µM (inactive)	> 100 µM (inactive)	> 100 µM (inactive)	80.7 µM (inactive)	> 100 µM (inactive)	> 100 µM (inactive)	> 100 µM (inactive)	> 100 µM (inactive)	38.5 µM (inactive)	> 100 µM (inactive)
NC1=NC2=c3ccccc3=C(c3cnccn3)C2(c2cnccn2)c2ccccc21 (stereo not given)	–	34.7 µM (inactive)	80.5 µM (inactive)	81.8 µM (inactive)	76.9 µM (inactive)	89.5 µM (inactive)	64.4 µM (inactive)	87.9 µM (inactive)	44.4 µM (inactive)	–	44.7 µM (inactive)	42.2 µM (inactive)	–	> 100 µM (inactive)	73.3 µM (inactive)	48.2 µM (inactive)	52.8 µM (inactive)	18.2 µM (inactive)	39.6 µM (inactive)	> 100 µM (inactive)
